# “And” between values parts separate entries of the source, which are not always exact repeats. Identical values can stand only once.
# Molecular target: human PD-L1 (Homo sapiens (Human), UniProt Q9NZQ7)
# Assay: T cell activation luciferase reporter cell culture system (T Cell Activation Assay)
# Type: cell-based
# Conditions: luciferase reporter assay; PD-L1 aAPC/CHO-K1 cells with PD-1 effector Jurkat T cells
# Sequence of human PD-L1 (Q9NZQ7 19-290): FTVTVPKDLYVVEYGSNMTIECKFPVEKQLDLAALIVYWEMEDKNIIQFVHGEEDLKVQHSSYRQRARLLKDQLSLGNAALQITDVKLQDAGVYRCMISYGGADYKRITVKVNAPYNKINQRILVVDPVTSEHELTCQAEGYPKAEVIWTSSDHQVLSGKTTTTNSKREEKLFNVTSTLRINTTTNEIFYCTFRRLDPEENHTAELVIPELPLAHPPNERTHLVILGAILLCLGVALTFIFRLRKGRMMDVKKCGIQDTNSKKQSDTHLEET
row,SMILES,EC50
1,"COc1cc(-c2nccc(-c3cccc(-c4ccc(CN(C)C5CCOCC5)c(OC)n4)c3Cl)c2Cl)ccc1CNC1CCN(C(C)=O)CC1 [Example 436, 1-(4-((4-(3-chloro-4-(2-chloro-3-(6-methoxy-5-((methyl(tetrahydro-2H-pyran-4-yl)amino)methyl)pyridin-2-yl)phenyl)pyridin-2-yl)-2-methoxybenzyl)amino)piperidin-1-yl)ethan-1-one]",134 nM
2,"COc1cc(-c2nccc(-c3cccc(NC(=O)c4ccc(CNC[C@@H]5CCC(=O)N5)cn4)c3C)c2Cl)ccc1CNC1CCOCC1 [Example 748, (S)—N-(3-(3-chloro-2-(3-methoxy-4-(((tetrahydro-2H-pyran-4-yl)amino)methyl)phenyl)pyridin-4-yl)-2-methylphenyl)-5-((((5-oxopyrrolidin-2-yl)methyl)amino)methyl)picolinamide]",1000 nM
3,"COc1cc(-c2nccc(-c3cccc(-c4ccc(CN5CCOCC5)c(OC)n4)c3Cl)c2Cl)ccc1CN1CCOCC1 [Example 411, 4-((6-(2-Chloro-3-(3-chloro-2-(3-methoxy-4-(morpholinomethyl)phenyl)pyridin-4-yl)phenyl)-2-methoxypyridin-3-yl)methyl)morpholine]",≥ 10000 nM
4,"COc1cc(-c2nccc(-c3cccc(-c4ccc(CNC[C@@H]5CCC(=O)N5)c(OC)n4)c3Cl)c2Cl)cc2c1CN(CCO)CC2 [Cmpd 54, (S)-5-((((6-(2-chloro-3-(3-chloro-2-(2-(2-hydroxyethyl)-8-methoxy-1,2,3,4-tetrahydroisoquinolin-6-yl)pyridin-4-yl)phenyl)-2-methoxypyridin-3-yl)methyl)amino)methyl)pyrrolidin-2-one]",24.3 nM and 21.5 nM
5,"COc1cc(-c2nccc(-c3cccc(-c4ccc(CNC5CCN(c6ncccc6Cl)CC5)c(OC)n4)c3Cl)c2Cl)ccc1CNC1CCN(c2ncccc2Cl)CC1 [Example 445, N-((6-(2-Chloro-3-(3-chloro-2-(4-(((1-(3-chloropyridin-2-yl)piperidin-4-yl)amino)methyl)-3-methoxyphenyl)pyridin-4-yl)phenyl)-2-methoxypyridin-3-yl)methyl)-1-(3-chloropyridin-2-yl)piperidin-4-amine]",≥ 10000 nM
6,"COc1cc(-c2nccc(-c3cccc(-c4ccc(CNCCCCC(N)=O)c(OC)n4)c3Cl)c2Cl)ccc1CNCCCCC(N)=O [Example 373, 5-(((6-(3-(2-(4-(((5-Amino-5-oxopentyl)amino)methyl)-3-methoxyphenyl)-3-chloropyridin-4-yl)-2-chlorophenyl)-2-methoxypyridin-3-yl)methyl)amino)pentanamide]",152 nM
7,"COc1nc(-c2cccc(-c3ccnc(-c4cc(OC)c5nc(CN[C@H]6CC[C@H](O)CC6)cn5c4)c3Cl)c2Cl)ccc1CN[C@H]1CC[C@H](O)CC1 [Example 453, (1r,4r)-4-(((6-(2-Chloro-3-(3-chloro-2-(2-((((1r,4r)-4-hydroxycyclohexyl)amino)methyl)-8-methoxyimidazo[1,2-a]pyridin-6-yl)pyridin-4-yl)phenyl)-2-methoxypyridin-3-yl)methyl)amino)cyclohexan-1-ol]",270 nM
8,"COc1nc(-c2cccc(-c3ccnc(-c4cc(OC)c5nc(CN6CC7(CNC(=O)C7)C6)nn5c4)c3Cl)c2Cl)ccc1CNC1CCN(C(C)=O)CC1 [Example 659, 2-((6-(4-(3-(5-(((1-Acetylpiperidin-4-yl)amino)methyl)-6-methoxypyridin-2-yl)-2-chlorophenyl)-3-chloropyridin-2-yl)-8-methoxy-[1,2,4]triazolo[1,5-a]pyridin-2-yl)methyl)-2,6-diazaspiro[3.4]octan-7-one]",82.2 nM
9,"COc1cc(-c2nccc(-c3cccc(-c4ccc(CN(C)C5CCOCC5)c(OC)n4)c3Cl)c2Cl)ccc1CNC1CCOCC1 [Example 468, N-((6-(2-chloro-3-(3-chloro-2-(3-methoxy-4-(((tetrahydro-2H-pyran-4-yl)amino)methyl)phenyl)pyridin-4-yl)phenyl)-2-methoxypyridin-3-yl)methyl)-N-methyltetrahydro-2H-pyran-4-amine]",97.1 nM
10,"COc1cc(-c2nccc(-c3cccc(-c4ccc(CNC[C@@H]5CCC(=O)N5)c(OC)n4)c3Cl)c2Cl)ccc1CNC1(C(=O)O)CC1 [Cmpd 121, (S)-1-((4-(3-chloro-4-(2-chloro-3-(6-methoxy-5-((((5-oxopyrrolidin-2-yl)methyl)amino)methyl)pyridin-2-yl)phenyl)pyridin-2-yl)-2-methoxybenzyl)amino)cyclopropane-1-carboxylic acid]",131 nM
11,"COc1cc(-c2nccc(-c3cccc(-c4ccc(CNC5CCN(C(C)=O)CC5)c(OC)n4)c3Cl)c2C)ccc1CNC1CCN(C(C)=O)CC1 [Example 271, 1-(4-(((6-(3-(2-(4-(((1-Acetylpiperidin-4-yl)amino)methyl)-3-methoxyphenyl)-3-methylpyridin-4-yl)-2-chlorophenyl)-2-methoxypyridin-3-yl)methyl)amino)piperidin-1-yl)ethan-1-one]",183 nM

# Results, then the compound that gave them:
row,EC50,SMILES
1,16.7 nM,"COc1cc(-c2ccnc(-c3cccc(-c4ccc(CNC[C@@H]5CCC(=O)N5)c(OC)n4)c3Cl)c2Cl)ccc1CNC[C@@H]1CCC(=O)N1 [Example 624, (S)-5-(((4-(3-Chloro-2-(2-chloro-3-(6-methoxy-5-(((((S)-5-oxopyrrolidin-2-yl)methyl)-amino)methyl)pyridin-2-yl)phenyl)pyridin-4-yl)-2-methoxybenzyl)-amino)methyl)pyrrolidin-2-one]"
2,28.5 nM,"COc1cc(-c2nccc(-c3cccc(-c4ccc(CN[C@H]5CC[C@H](O)CC5)c(OC)n4)c3Cl)c2Cl)ccc1CN[C@H]1CC[C@H](O)CC1 [Example 364, (1r,4r)-4-(((6-(2-Chloro-3-(3-chloro-2-(4-((((1r,4r)-4-hydroxycyclohexyl)amino)methyl)-3-methoxyphenyl)pyridin-4-yl)phenyl)-2-methoxypyridin-3-yl)methyl)amino)cyclohexan-1-ol]"
3,18.3 nM,"COCCC(=O)N1CCC(NCc2ccc(-c3cccc(-c4ccnc(-c5ccc(CNC6CCN(C(C)=O)CC6)c(OC)c5)c4Cl)c3Cl)nc2OC)CC1 [Example 607, 1-(4-(((6-(3-(2-(4-(((1-Acetylpiperidin-4-yl)amino)methyl)-3-methoxyphenyl)-3-chloropyridin-4-yl)-2-chlorophenyl)-2-methoxypyridin-3-yl)methyl)amino)piperidin-1-yl)-3-methoxypropan-1-one]"
4,56.7 nM,"COc1cc(-c2nccc(-c3cccc(-c4ccc(CNCCCF)c(OC)n4)c3Cl)c2Cl)ccc1CNCCCF [Example 534, N-((6-(2-Chloro-3-(3-chloro-2-(4-(((3-fluoropropyl)amino)methyl)-3-methoxyphenyl)pyridin-4-yl)phenyl)-2-methoxypyridin-3-yl)methyl)-3-fluoropropan-1-amine]"
5,37.7 nM,"COCCC(=O)N1CCC(NCc2ccc(-c3cccc(-c4ccnc(-c5ccc(CN6CC7(C6)CN(C(C)=O)C7)c(OC)c5)c4Cl)c3Cl)nc2OC)CC1 [Example 631, 1-(4-(((6-(3-(2-(4-((6-Acetyl-2,6-diazaspiro[3.3]heptan-2-yl)methyl)-3-methoxyphenyl)-3-chloropyridin-4-yl)-2-chlorophenyl)-2-methoxypyridin-3-yl)methyl)amino)piperidin-1-yl)-3-methoxypropan-1-one]"
6,27 nM,"COc1cc(-c2nccc(-c3cccc(-c4ccc(CNC[C@@H]5CCC(=O)N5)c(OC)n4)c3Cl)c2Cl)cc2c1CN(CC1CCN(C(C)=O)CC1)CC2 [Cmpd 62, (S)-5-((((6-(3-(2-(2-((1-acetylpiperidin-4-yl)methyl)-8-methoxy-1,2,3,4-tetrahydroisoquinolin-6-yl)-3-chloropyridin-4-yl)-2-chlorophenyl)-2-methoxypyridin-3-yl)methyl)amino)methyl)pyrrolidin-2-one]"
7,30.6 nM,"COc1cc(-c2nccc(-c3cccc(-c4cc(Cl)c(CNC[C@@H]5CCC(=O)N5)c(OC)n4)c3Cl)c2Cl)ccc1CN(C)C[C@H](C)O [Cmpd 71, (S)-5-((((4-chloro-6-(2-chloro-3-(3-chloro-2-(4-((((S)-2-hydroxypropyl)(methyl)amino)methyl)-3-methoxyphenyl)pyridin-4-yl)phenyl)-2-methoxypyridin-3-yl)methyl)amino)methyl)pyrrolidin-2-one]"
8,22.3 nM,"COc1cc(-c2nccc(-c3cccc(-c4ccc(CNC[C@@H]5CCC(=O)N5)c(OC)n4)c3Cl)c2Cl)cc2c1CN(C[C@@H]1CCC(=O)N1)CC2 [Cmpd 6, (S)-5-((((6-(2-chloro-3-(3-chloro-2-(8-methoxy-2-(((S)-5-oxopyrrolidin-2-yl)methyl)-1,2,3,4-tetrahydroisoquinolin-6-yl)pyridin-4-yl)phenyl)-2-methoxypyridin-3-yl)methyl)amino)methyl)pyrrolidin-2-one]"
9,27 nM,"COCC(=O)N1CCC(NCc2ccc(-c3cccc(-c4ccnc(-c5ccc(CN6CCC(O)CC6)c(OC)c5)c4Cl)c3Cl)nc2OC)CC1 [Example 510, 1-(4-(((6-(2-Chloro-3-(3-chloro-2-(4-((4-hydroxypiperidin-1-yl)methyl)-3-methoxyphenyl)pyridin-4-yl)phenyl)-2-methoxypyridin-3-yl)methyl)amino)piperidin-1-yl)-2-methoxyethan-1-one]"
10,27.9 nM,"COc1cc(-c2nccc(-c3cccc(-c4ccc(CNC[C@@H]5CCC(=O)N5)c(OC)n4)c3Cl)c2Cl)ccc1CNC1CCN(C(C)=O)CC1 [Cmpd 109, (S)-5-((((6-(3-(2-(4-(((1-acetylpiperidin-4-yl)amino)methyl)-3-methoxyphenyl)-3-chloropyridin-4-yl)-2-chlorophenyl)-2-methoxypyridin-3-yl)methyl)amino)methyl)pyrrolidin-2-one]"
11,50.8 nM,"COc1cc(-c2nccc(-c3cccc(-c4ccc5c(CNC6CCOCC6)cn(C)c5n4)c3Cl)c2Cl)ccc1CNC[C@@H]1CCC(=O)N1 [Cmpd 59, (S)-5-(((4-(3-chloro-4-(2-chloro-3-(1-methyl-3-(((tetrahydro-2H-pyran-4-yl)amino)methyl)-1H-pyrrolo[2,3-b]pyridin-6-yl)phenyl)pyridin-2-yl)-2-methoxybenzyl)amino)methyl)pyrrolidin-2-one]"
